# Experimental data from patent US11730731B2 (INVENTAGE LAB INC., priority 2021, dated 2023).
# How the values were obtained:
# [1] = molecular target: T1, MD2 protein (Homo sapiens, UniProt Q9Y6Y9); assay: Surface plasmon resonance analysis of binding to MD2; conditions: binding gradually increased as the concentration of naltrexone increased
# T1 construct: purchased R&D systems (Minneapolis, Minn., USA)
# T1 sequence (Q9Y6Y9 19-160): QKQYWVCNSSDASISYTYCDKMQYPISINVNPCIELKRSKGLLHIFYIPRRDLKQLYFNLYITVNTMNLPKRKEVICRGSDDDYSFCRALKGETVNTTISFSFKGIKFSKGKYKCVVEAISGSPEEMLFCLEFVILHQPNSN
# [2] = system: p65 NF-κB; assay: Western blotting of NF-κB activity in LPS-treated SW982 cells; assay type: cell-based, human
# Method: (§1) 1× Cell lysis buffer (Cell signaling, CA, USA) was mixed with protease and a phosphatase inhibitor and added to SW982 cells. After extracting the protein from the cells, the concentration was measured, and the same amount of protein was developed on an SDS-polyacrylamide gel, and transferred to an ECL nitrocellulose membrane (Amersham Pharmacia Biotech, Inc., Piscataway, N.J., USA) and blocked with nonfat dried milk for 1 hour. Thereafter, the reaction was performed with the first antibody (p65 NF-κB, phospho p65 NF-κB or calnexin; Cell signaling, CA, USA), while shaking at 4° C. for 24 hours. Then, after shaking and washing 3 times for 10 minutes with PBST buffer, the secondary antibody was incubated with anti-mouse or anti-rabbit HRP-conjugated secondary antibody for 1 hour at room temperature, and reacted with the protein band on the membrane using Supersignal west pico ECL solution (Thermo Fisher Scientific Inc.). The results were visualized with the Bio-Rad Gel Documentation system (Bio-Rad Laboratories, Hercules, Calif., USA), and the results were shown in FIG. 26.
# as §1, with “phospho p65 NF-κB, p-ERK, ERK, p-JNK, JNK, p-p38, p38 or calnexin;” for “phospho p65 NF-κB or calnexin;”, “Scientific Inc.). […]” for “Scientific Inc.). The results were visualized with the Bio-Rad Gel Documentation system (Bio-Rad Laboratories, Hercules, Calif., USA), and the results were shown in FIG. 26.”
# [3] = system: MAPKs (ERK, JNK, p38); assay: Western blotting of MAPKs activity in LPS-treated SW982 cells; assay type: cell-based, human
# Method: Western blotting was performed in the same manner as in Example 6.3. The first antibody used at this time is an antibody against p-ERK, ERK, p-JNK, JNK, p-p38, p38 and calnexin (Cell signaling, CA, USA), and the secondary antibody is anti-mouse or anti-rabbit HRP-binding secondary antibody.
# 1× Cell lysis buffer (Cell signaling, CA, USA) was mixed with protease and a phosphatase inhibitor and added to SW982 cells. After extracting the protein from the cells, the concentration was measured, and the same amount of protein was developed on an SDS-polyacrylamide gel, and transferred to an ECL nitrocellulose membrane (Amersham Pharmacia Biotech, Inc., Piscataway, N.J., USA) and blocked with nonfat dried milk for 1 hour. Thereafter, the reaction was performed with the first antibody (p65 NF-κB, phospho p65 NF-κB, p-ERK, ERK, p-JNK, JNK, p-p38, p38 or calnexin; Cell signaling, CA, USA), while shaking at 4° C. for 24 hours. Then, after shaking and washing 3 times for 10 minutes with PBST buffer, the secondary antibody was incubated with anti-mouse or anti-rabbit HRP-conjugated secondary antibody for 1 hour at room temperature, and reacted with the protein band on the membrane using Supersignal west pico ECL solution (Thermo Fisher Scientific Inc.). The results were visualized with the Bio-Rad Gel Documentation system (Bio-Rad Laboratories, Hercules, Calif., USA), and the results are shown in FIG. 35.
# [4] = system: p65 NF-κB; assay: Western blotting of NF-κB activity in LPS-treated Raw 264.7 cells; assay type: cell-based, mouse
# [5] = system: pro-inflammatory cytokines (TNF-α, IL-1β, IL-6, IL-17, iNOS) in SW982 cells; assay: RT-qPCR of LPS-induced pro-inflammatory cytokine expression in SW982 cells; conditions: 6 hours
# Excerpt: (§2) Lipopolysaccharide (LPS) was purchased from Sigma-Aldrich (St. Louis, Mo., USA).
# [6] = system: pro-inflammatory cytokines (TNF-α, IL-1β, IL-6, IL-17, iNOS) in Raw 264.7 cells; assay: RT-qPCR of LPS-induced pro-inflammatory cytokine expression in Raw 264.7 cells; conditions: 6 hours
# Excerpt: as §2
# [7] = LPS 1 ug/ml, 0.5, 1, 10, 100 uM, 30 minutes, naltrexone effect at 1 uM
# [8] = LPS 1 ug/ml, 0.5, 1, 10, 100 uM
# [9] = LPS 1 ug/ml, naltrexone 200 or 500 ug/ml
structure (smiles),measurement,setting,value
"O=C1CC[C@@]2(O)[C@H]3Cc4ccc(O)c5c4[C@@]2(CCN3CC2CC2)[C@H]1O5 [Naltrexone, 17-(cyclopropylmethyl)-4,5α-epoxy-3,14-dihydroxymorphinan-6-one]",binding to MD2 (surface plasmon resonance),[1],binds to the MD2 protein
same,phosphorylation of p65 NF-κB increased by LPS,"[2]; 200 ug/ml of naltrexone, Western blotting",inhibited
same,phosphorylation of p65 NF-κB increased by LPS,[2]; [7],inhibited
same,phosphorylation of MAPK increased by LPS,"[3]; 200 or 500 ug/ml of naltrexone, Western blotting",decreased
same,"phosphorylation of MAPKs (ERK1/2, JNK, p38) increased by LPS",[3]; [7],inhibited
same,p65 NF-κB phosphorylation increased by LPS,"[4]; LPS 1 ug/ml, 0.5, 1, 10, 100 uM, 30 minutes",inhibited
same,phosphorylation of p65 NF-κB increased by LPS,"[4]; from a concentration of 500 ug/ml of naltrexone (100, 200, 500, 1000 ug/ml tested), Western blotting",inhibits the activity of NF-κB
same,"cytokine inhibitory activity, naltrexone compared with 6β-naltrexol",[5]; [8],superior cytokine inhibitory activity than the metabolite 6β-naltrexol
same,"expression of cytokines (iNOS, IL-1β, IL-6, TNF-α) induced by LPS",[5]; [8],suppressed at all concentrations
same,"expression of pro-inflammatory cytokines (TNF-α, IL-1β, IL-6, IL-17, iNOS) increased by LPS",[5]; [9],significantly inhibited
same,"expression of cytokines (iNOS, IL-1β, IL-6, TNF-α) induced by LPS",[6]; [8],suppressed at all concentrations
same,"expression of pro-inflammatory cytokines (TNF-α, IL-1β, IL-6, IL-17, iNOS) increased by LPS",[6]; [9],significantly inhibited
